# Strand notation (5' to 3'): a small letter for the sugar, then the base; units joined by * are phosphorothioate-linked, units joined directly phosphodiester-linked; [ ] holds rarer units or linkages, { } end groups; capitals alone tell only the bases. d = 2'-deoxy (DNA)
# Key:
# [1] = test system: freshly isolated peripheral blood human monocytes; test: IL-12 p40 production by human monocytes (ELISA); format: cell-based; details: adherent PBMCs from a healthy donor, 0.5-2 μg/ml PBS, 24 hours incubation, FIG. 1
# Procedure: Adherent Peripheral Blood Mononuclear Cells (PBMCs) from a tuberculin-negative healthy donor were incubated with AS101 or AS103 (0.5-2 μg/ml PBS) or E. coli lipopolysaccharide (LPS) (1 ng/ml PBS; Sigma) for 24 hours. Supernatants were collected after 28 hours for analysis of IL-12 production. Cell supernatants were determined using commercially available Enzyme-Linked Immunosorbent Assay (ELISA) kits (R&D Systems). Supernatants were tested for IL-12p40 by ELISA kit (Endogene).
# [2] = test system: KLH-specific IgG1 and IgG2a; test: Serum antibody responses to KLH in immunized mice (ELISA titers); format: in vivo
# Procedure: Serum was obtained from mice immunized with depyrogenated keyhole limpet hemocyanin (KLH) (5 μg; Calbiochem, La Jolla, Calif.); with KLH plusphosphorothioate-stabilized oligodeoxynucleotide-containing CpG motifs (CpG-ODN) (5′-GCTAGACGTTAGCGT-3′), synthesized by Sigma-Genosys Ltd., Cambridge, United Kingdom; with KLH, plus CpG, plus AS101 (10 μg/ml PBS); or with Dulbecco's PBS alone (Sigma, Poole, United Kingdom), each in a final volume of 50 μl PBS.
# On day 7 after immunization, mice were sacrificed by cervical dislocation, and serum and popliteal lymph nodes were collected. Titers of KLH-specific IgG1 and IgG2a in the serum of the immunized mice were determined by ELISA, and analysed for the presence of antibody subclasses IgG1 and IgG2a.
# [3] = test system: Murine bone marrow-derived dendritic cells; test: IL-12 p40 production by murine bone marrow-derived dendritic cells (ELISA); format: cell-based, mice; details: DC 10^6 cells/ml, 0.5-10 μg/ml PBS, supernatants after 24 hours, FIG. 2
# Procedure: Murine bone marrow-derived dendritic cells (DC) were prepared by culturing bone marrow cells from the femur and tibia of mice in RPMI medium supplemented with 10% supernatant from a granulocyte-monocyte colony-stimulating factor-secreting cell line.
# On day 7 of culture, cells were collected, washed, and resuspended in RPMI medium. DC (10^6 cells/ml) were cultured with AS101 or AS103 (0.5-10 μg/ml PBS), or with CpG. Supernatants were collected after 24 hours for analysis of IL-12 p40 production. Cell supernatants were determined using commercially available ELISA kits (R&D Systems).
# rats = details: intravenous and intramuscular administration; cited from earlier work
Compound,IL-12 p40 production [1],"KLH-specific IgG1 response to KLH plus CpG on addition of the compound ([2]; 10 μg/ml PBS added to KLH plus CpG, day 7 after immunization, FIG. 3a)","production of KLH-specific IgG2a in response to KLH plus CpG on addition of the compound ([2]; 10 μg/ml PBS added to KLH plus CpG, day 7 after immunization, FIG. 3b)",IL-12 p40 production [3],LD50 values relative to the immunologically effective dose (rats),"KLH-specific antibody titer (IgG1 and IgG2a) on use together with KLH ([2]; KLH 5 μg plus CpG versus KLH alone, day 7, FIGS. 3a and 3b)"
"Cl[TeH]1(Cl)(Cl)OCCO1 [AS101, ammonium trichloro(dioxyethylene-O,O′)tellurate]",potent inducer,no further increase,significantly increased,potent inducer,500-1000 folds,–
Cl[Te]1(Cl)OCCO1 [AS 103],very low response,–,–,–,–,–
"CpG: phosphorothioate-stabilized oligodeoxynucleotide-containing CpG motifs (CpG-ODN) (5′-GCTAGACGTTAGCGT-3′), synthesized by Sigma-Genosys (DNA dG*dC*dT*dA*dG*dA*dC*dG*dT*dT*dA*dG*dC*dG*dT) [reference compound]",–,–,–,–,–,increased
